Reference: US20120070442A1, “METHODS AND COMPOSITIONS FOR TREATING CANCER” (The Regents of the University of Colorado, a body corporate, priority 2007, published 2012)

Test system: NSCLC
Test: Clinical response and survival of NSCLC patients treated with gefitinib
Format: in vivo, human
From the text: After appropriate approval from the institution and written informed consent for comprehensive use of molecular and pathologic analysis was received from each patient, NSCLC specimens were formalin-fixed, paraffin-embedded at Tokyo Medical University, Tokyo, Japan. Information on gender, age, histology, cigarette use, response, and survival was obtained for each patient. Tumor specimens were microdissected under stereoscopic microscopy (LEICA MZ12, Leica Microsystems, Wetzlar, Germany). DNA was extracted from tumor cells with the DNeasy Tissue Kit (Qiagen, Valencia, Calif.).
For all tests, a level of P<0.05 was considered statistically significant. Fisher's exact test for count data was used to analyze proportions among the factors studied. […] In this case, response or stable disease was considered a positive outcome while progressive disease was considered negative. The Kaplan-Meier method was used to estimate the probability of survival as a function of time. […] Significant differences between survival curves were analyzed using the log-rank test. Multivariate analysis of the relative importance of the factors to survival was performed using the Cox proportional-hazards method.
Each sample was analyzed in triplicate on a quantitation run. The ratio of miR-128b to CFTR DNA copies was determined. […]

COc1cc2ncnc(Nc3ccc(F)c(Cl)c3)c2cc1OCCCN1CCOCC1 [Gefitinib, N-(3-chloro-4-fluoro-phenyl)-7-methoxy-6-(3-morpholin-4-ylpropoxy)quinazolin-4-amine]
survival after initiation of gefitinib therapy (NSCLC patients with deletion of miR-128b by DNA copy): 23.3 months
survival after initiation of gefitinib therapy (NSCLC patients without deletion of miR-128b by DNA copy): 10.7 months
